Source: US4468511A, “C-20- And C-23-Modified macrolide derivatives” (Eli Lilly and Company, priority 1983, dated 1984)
In brackets after ≈: the same amount, converted by molar mass. Like-named read-outs stand apart in the source and are kept apart here.

Legend:
[1] = system: Staphylococcus epidermidis EPI2; test: MIC, standard agar-dilution assay; format: cell-based; conditions: Staphylococcus epidermidis, EPI2
Protocol: (§1) The MIC's in Table II were determined by standard agar-dilution assays. The MIC's in Table III were obtained using a conventional broth-dilution microtiter test.

[2] = system: Staphylococcus aureus X400; test: MIC, standard agar-dilution assay; format: cell-based; conditions: Staphylococcus aureus, X400
Protocol: as §1

[3] = system: Pasteurella multocida 40G; test: MIC, conventional broth-dilution microtiter test; format: cell-based; conditions: Pasteurella multocida, 40G
Method in brief: (§2)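 Two formats were used. Broth dilution in microtiter plates served for Pasteurella and Mycoplasma, while agar dilution served for Klebsiella.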

[4] = system: Pasteurella hemolytica 23C; test: MIC, conventional broth-dilution microtiter test; format: cell-based
Method in brief: as §2

[5] = system: Mycoplasma gallisepticum 41313; test: MIC, conventional broth-dilution microtiter test; format: cell-based; conditions: Mycoplasmoides gallisepticum
Method in brief: as §2

[6] = system: Pasteurella multocida 22A; test: MIC, conventional broth-dilution microtiter test; format: cell-based; conditions: Pasteurella multocida, 22A
Method in brief: as §2

[7] = system: Pasteurella hemolytica 41D; test: MIC, conventional broth-dilution microtiter test; format: cell-based
Method in brief: as §2

Streptococcus sp. 80 = test: MIC, conventional broth-dilution microtiter test; format: cell-based; conditions: Streptococcus, SP.80
Protocol: (§3) Certain of the derivatives are active against some gram-negative bacteria, such as Pasteurella species. The MIC's in Table II were determined by standard agar-dilution assays. The MIC's in Table III were obtained using a conventional broth-dilution microtiter test.

Mycoplasma hyorhinis = test: MIC, conventional broth-dilution microtiter test; format: cell-based; conditions: Mycoplasma
Method in brief: (§4)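 Minimum inhibitory concentrations are determined by conventional broth dilution in microtiter wells for Pasteurella and Mycoplasma isolates. For Klebsiella pneumoniae KAE, the standard agar-dilution assay is used.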

[8] = system: Pasteurella multocida 17E; test: MIC, conventional broth-dilution microtiter test; format: cell-based; conditions: Pasteurella multocida, 17E
Method in brief: as §2

Mycoplasma gallisepticum = test: MIC, conventional broth-dilution microtiter test; format: cell-based; conditions: Mycoplasmoides gallisepticum
Method in brief: as §2

Mycoplasma synoviae = test: MIC, conventional broth-dilution microtiter test; format: cell-based; conditions: Mycoplasmopsis synoviae
Method in brief: as §4

[9] = system: Pasteurella hemolytica 22C; test: MIC, conventional broth-dilution microtiter test; format: cell-based
Method in brief: as §2

Staphylococcus aureus = test: MIC, conventional broth-dilution microtiter test; format: cell-based
Protocol: as §3

[10] = system: Pasteurella multocida 60A; test: MIC, conventional broth-dilution microtiter test; format: cell-based; conditions: Pasteurella multocida, 60A
Method in brief: as §2

[11] = system: Mycoplasma gallisepticum 34159; test: MIC, conventional broth-dilution microtiter test; format: cell-based; conditions: Mycoplasmoides gallisepticum
Method in brief: as §2

[12] = system: Pasteurella multocida 68C; test: MIC, conventional broth-dilution microtiter test; format: cell-based; conditions: Pasteurella multocida, 68C
Method in brief: as §2

[13] = system: Staphylococcus aureus S13E; test: microbe, parasite or virus in culture; format: cell-based
Protocol: as §1

[14] = system: Staphylococcus epidermidis EPI1; test: microbe, parasite or virus in culture; format: cell-based; conditions: Staphylococcus epidermidis, EPI1
Protocol: as §1

[15] = system: Streptococcus pyogenes C203; test: Protection of mice experimentally infected with S. pyogenes C203; format: in vivo
Protocol: Some of the derivatives of this invention have shown in vivo antimicrobial activity against experimentally-induced infections in laboratory animals. When two doses of test compound were administered to mice experimentally infected with S. pyogenes C203, the activity observed was measured as an ED50 value [effective dose in mg/kg to protect 50% of the test animals: see Warren Wick, et al., J. Bacteriol. 81, 233-235 (1961)].

[16] = system: Streptococcus pneumoniae Park I; test: MIC, standard agar-dilution assay; format: cell-based; conditions: Streptococcus pneumoniae
Protocol: as §3

[17] = system: Streptococcus pyogenes 9960; test: MIC, standard agar-dilution assay; format: cell-based; conditions: 9960
Protocol: as §3

[18] = system: Klebsiella pneumoniae X26; test: MIC, standard agar-dilution assay; format: cell-based; conditions: Klebsiella pneumoniae, X26
Method in brief: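 Broth microdilution MICs cover P. hemolytica, P. multocida and M. gallisepticum. The agar-dilution MIC covers K. pneumoniae only.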

[19] = system: Staphylococcus aureus X1.1; test: MIC, standard agar-dilution assay; format: cell-based; conditions: Staphylococcus aureus, X1.1
Method in brief: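 Minimum inhibitory concentration against Staphylococcus aureus strain X1.1 was measured with a standard agar-dilution method. The result is reported as the MIC in ug/mL, i.e. the lowest compound concentration in agar that prevents visible growth of this organism.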

[20] = system: Klebsiella pneumoniae KAE; test: MIC, standard agar-dilution assay; format: cell-based
Method in brief: as §2

Escherichia coli TEM = test: MIC, standard agar-dilution assay; format: cell-based
Method in brief: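 Minimum inhibitory concentrations against Escherichia coli were measured with a standard agar-dilution method. The result for each derivative is the lowest concentration that inhibits bacterial growth, given in ug/mL.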

Escherichia coli EC14 = test: MIC, standard agar-dilution assay; format: cell-based
Protocol: as §3

[21] = system: Streptococcus pyogenes C203; test: MIC, standard agar-dilution assay; format: cell-based; conditions: Streptococcus pyogenes, C203
Protocol: as §3

[22] = system: Streptococcus Group D X66; test: MIC, standard agar-dilution assay; format: cell-based
Protocol: as §3

[23] = system: Staphylococcus aureus V41; test: MIC, standard agar-dilution assay; format: cell-based; conditions: Staphylococcus aureus, V41
Protocol: as §3

Pasteurella multocida = test: Pasteurella infection in one-day old chicks; format: in vivo; conditions: subcutaneous, 30 mg/kg × 2, 1 and 4 hours post-challenge
Protocol: Certain of the formula 1 compounds of this invention have also shown in vivo activity against infections induced by gram-negative bacteria. Table V summarizes the results of tests in which illustrative compounds were evaluated against a Pasteurella infection in one-day old chicks. The compounds were administered parenterally after challenge of the chicks with Pasteurella multocida (0.1 ml of a 10^-4 dilution of a twenty-hour tryptose broth culture of an avian P. multocida given subcutaneously). In these tests, unless indicated otherwise, all non-medicated infected chicks died within 24 hours of Pasteurella challenge. In the tests summarized in Table V, the compounds were administered by subcutaneous injection at a dosage of 30 mg/kg, 1 and 4 hours post-challenge of the chicks with P. multocida.

[24] = system: Haemophilus influenzae C.L.; test: MIC, standard agar-dilution assay; format: cell-based; conditions: Haemophilus influenzae
Protocol: as §1

[25] = system: Haemophilus influenzae 76; test: MIC, standard agar-dilution assay; format: cell-based; conditions: agar-dilution; Haemophilus influenzae 76, Ampicillin-resistant strain; read-out: MIC
Protocol: as §1

Row | SMILES | MIC [1] [µg/mL] | MIC [2] [µg/mL] | MIC [3] [µg/mL] | MIC [6] [µg/mL] | MIC (Streptococcus sp. 80) [µg/mL] | MIC (Mycoplasma hyorhinis) [µg/mL] | MIC [8] [µg/mL] | MIC (Mycoplasma gallisepticum) [µg/mL] | MIC (Mycoplasma synoviae) [µg/mL] | MIC (Staphylococcus aureus) [µg/mL] | MIC [10] [µg/mL] | MIC [12] [µg/mL] | MIC [13] [µg/mL] | MIC [14] [µg/mL] | MIC [16] [µg/mL] | MIC [17] [µg/mL] | MIC [18] [µg/mL] | MIC [19] [µg/mL] | MIC [21] [µg/mL] | MIC [22] [µg/mL] | other results
1 | CCC1OC(=O)CC(O)C(C)C(OC2OC(C)C(O)C(N(C)C)C2O)C(CCOC(=O)Cc2ccccc2)CC(C)C(=O)C=CC(C)=CC1COC(=O)Cc1ccccc1 (centres unmarked) [Compound 30, 20,23-Di-O-Phenylacetyl-20-dihydro-OMT] | 0.5 (≈ 0.598 µM) | 0.5 (≈ 0.598 µM) | 6.25 (≈ 7.48 µM) | 6.25 (≈ 7.48 µM) | 0.39 (≈ 0.466 µM) | 50 (≈ 59.8 µM) | 12.5 (≈ 15 µM) | 0.78 (≈ 0.933 µM) | 6.25 (≈ 7.48 µM) | 1.56 (≈ 1.87 µM) | 6.25 (≈ 7.48 µM) | 6.25 (≈ 7.48 µM) | 0.25 (≈ 0.299 µM) | 0.25 (≈ 0.299 µM) | 0.12 (≈ 0.144 µM) | 0.5 (≈ 0.598 µM) | 8 (≈ 9.57 µM) | 0.25 (≈ 0.299 µM) | 0.25 (≈ 0.299 µM) | 0.5 (≈ 0.598 µM) | MIC ([4]; Pasteurella, 23C): 6.25 µg/mL (≈ 7.48 µM); MIC [5]; 41313: 50 µg/mL (≈ 59.8 µM); MIC ([7]; Pasteurella, 41D): 6.25 µg/mL (≈ 7.48 µM); MIC ([9]; Pasteurella, 22C): 6.25 µg/mL (≈ 7.48 µM); MIC [11]; 34159: 12.5 µg/mL (≈ 15 µM); ED50 ([15]; C203, po, read-out: ED50 Oral): > 100 mg/kg; ED50 ([15]; C203, sc, read-out: ED50 Subcutaneous): > 30 mg/kg; MIC ([20]; Klebsiella pneumoniae): > 128 µg/mL; MIC (Escherichia coli TEM; Escherichia coli): 8 µg/mL (≈ 9.57 µM); MIC (Escherichia coli EC14; Escherichia coli, EC14): > 128 µg/mL; MIC [23]: 0.25 µg/mL (≈ 0.299 µM); Number of Deaths/Number Treated (Pasteurella multocida): 9/10
2 | CCC1OC(=O)CC(O)C(C)C(OC2OC(C)C(O)C(N(C)C)C2O)C(CCOc2ccccc2)CC(C)C(=O)C=CC(C)=CC1COC(=O)CCc1ccccc1 (centres unmarked) [Compound 33, 20-O-Phenyl-20-dihydro-23-O-phenylpropionyl-OMT] | 1 (≈ 1.24 µM) | 2 (≈ 2.48 µM) | 3.12 (≈ 3.86 µM) | 3.12 (≈ 3.86 µM) | 0.097 (≈ 0.12 µM) | 50 (≈ 61.9 µM) | 3.12 (≈ 3.86 µM) | 0.78 (≈ 0.965 µM) | 6.25 (≈ 7.73 µM) | 0.78 (≈ 0.965 µM) | 3.12 (≈ 3.86 µM) | 3.12 (≈ 3.86 µM) | 1 (≈ 1.24 µM) | 1 (≈ 1.24 µM) | 0.5 (≈ 0.619 µM) | 2 (≈ 2.48 µM) | 32 (≈ 39.6 µM) | 1 (≈ 1.24 µM) | 2 (≈ 2.48 µM) | 1 (≈ 1.24 µM) | MIC [24]: 128 µg/mL (≈ 158 µM); MIC [25]: > 128 µg/mL; MIC ([4]; broth-dilution microtiter, Pasteurella hemolytica 23C, read-out: MIC): 25 µg/mL (≈ 30.9 µM); MIC ([5]; broth-dilution microtiter, Mycoplasma gallisepticum 41313, Resistant strain, read-out: MIC): 25 µg/mL (≈ 30.9 µM); MIC ([7]; broth-dilution microtiter, Pasteurella hemolytica 41D, read-out: MIC): 25 µg/mL (≈ 30.9 µM); MIC ([9]; broth-dilution microtiter, Pasteurella hemolytica 22C, read-out: MIC): 25 µg/mL (≈ 30.9 µM); MIC ([11]; broth-dilution microtiter, Mycoplasma gallisepticum 34159, Resistant strain, read-out: MIC): 12.5 µg/mL (≈ 15.5 µM); ED50 ([15]; C203, mice, oral, mg/kg × 2, doses given 1 and 4 hours postinfection, read-out: ED50 Oral): > 50 mg/kg; ED50 ([15]; C203, sc, mice, subcutaneous, mg/kg × 2, doses given 1 and 4 hours postinfection, read-out: ED50 Subcutaneous): > 10 mg/kg; MIC ([20]; agar-dilution, Klebsiella pneumoniae KAE, read-out: MIC): > 128 µg/mL; MIC (Escherichia coli TEM; agar-dilution, Escherichia coli TEM, read-out: MIC): > 128 µg/mL; MIC (Escherichia coli EC14; agar-dilution, Escherichia coli EC14, read-out: MIC): > 128 µg/mL; MIC [23]: 1 µg/mL (≈ 1.24 µM)
